Calls of active or inactive are those of the source. No cut-off for these calls is given here.
Legend:
Sclerostin [1] = biological target: T1, Sclerostin (Homo sapiens, UniProt Q9BQB4); test: Binding affinity to SOST (unknown origin) by SPR analysis
T1 sequence (Q9BQB4 whole entry): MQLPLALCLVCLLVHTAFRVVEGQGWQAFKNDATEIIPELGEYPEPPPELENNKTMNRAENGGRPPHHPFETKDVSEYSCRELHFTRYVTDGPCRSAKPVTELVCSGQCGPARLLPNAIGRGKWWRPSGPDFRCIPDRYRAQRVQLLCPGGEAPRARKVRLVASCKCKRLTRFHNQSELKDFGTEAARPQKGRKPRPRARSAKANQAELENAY

Sclerostin [2] = biological target: T1, Sclerostin; test: Binding affinity to SOST loop3 (unknown origin) by SPR analysis
Sclerostin [3] = biological target: T1, Sclerostin; test: Binding affinity to SOST loop2 (unknown origin) by SPR analysis
[4] = Cmax in sc dosed Sprague-Dawley rat; format: ADME, organism-based; settings: in vivo
Albumin = Albumin (Homo sapiens, UniProt P02768); test: Binding affinity to human serum albumin; format: ADME; settings: isolated protein
Albumin, sequence (P02768 whole entry): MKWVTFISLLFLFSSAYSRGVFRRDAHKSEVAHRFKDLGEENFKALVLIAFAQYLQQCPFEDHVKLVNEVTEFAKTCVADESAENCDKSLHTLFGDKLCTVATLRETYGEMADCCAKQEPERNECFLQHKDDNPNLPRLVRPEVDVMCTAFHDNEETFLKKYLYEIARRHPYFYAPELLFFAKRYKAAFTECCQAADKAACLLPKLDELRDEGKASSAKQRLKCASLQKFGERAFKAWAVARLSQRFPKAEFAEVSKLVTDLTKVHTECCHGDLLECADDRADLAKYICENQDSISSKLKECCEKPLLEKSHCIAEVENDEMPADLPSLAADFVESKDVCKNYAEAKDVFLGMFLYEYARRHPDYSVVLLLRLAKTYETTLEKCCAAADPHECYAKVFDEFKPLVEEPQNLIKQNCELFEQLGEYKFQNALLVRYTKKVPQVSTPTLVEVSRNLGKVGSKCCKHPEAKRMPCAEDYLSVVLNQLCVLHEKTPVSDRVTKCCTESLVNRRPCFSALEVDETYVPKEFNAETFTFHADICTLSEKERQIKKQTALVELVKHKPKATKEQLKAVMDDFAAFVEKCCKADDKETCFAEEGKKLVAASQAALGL

[5] = Half-life in sc dosed Sprague-Dawley rat; format: ADME, organism-based; settings: in vivo
[6] = AUC in sc dosed Sprague-Dawley rat; format: ADME, organism-based; settings: in vivo
Homo sapiens = species: Homo sapiens; test: Binding affinity to FABP (unknown origin)

Row | SMILES | Kd (Sclerostin [1]) | Kd (Sclerostin [3]) | other results
1 | O=C1c2c(O)cc(O)cc2O[C@@H](c2ccc(O)c(O)c2)[C@H]1O [(+)-EPITAXIFOLIN] | 2630 nM |  | 
2 | Nc1nc2c(c(=O)[nH]1)NC(CNc1ccc(C(=O)N[C@@H](CCC(=O)O)C(=O)O)cc1)CN2 (some centres undefined) | 37.7 nM |  | Kd (Sclerostin [2]): 42.4 nM
3 | O=c1ccc2ccccc2o1 [COUMARIN] | 273 nM | 231 nM | 
4 | O=C1c2c(O)cc(O)cc2O[C@@H](c2cc(O)c(O)c(O)c2)[C@H]1O | 4780 nM | 3900 nM | 
5 | Oc1cc(O)c2c(c1)O[C@H](c1ccc(O)c(O)c1)[C@@H](O)C2 [CIANIDANOL] | 1580 nM | 1840 nM | 
6 | CC(=O)NCC#Cc1ccc(C(=O)NCC(=O)O)cc1 |  |  | Cmax [4]: 5.81 ng/mL; Activity (Albumin): Not Active; half-life [5]: 116 min; AUC [6]: 59.2 ng·h/mL; Activity (Homo sapiens): inactive

— ChEMBL document CHEMBL5500366, “Discovery of the small molecular inhibitors against sclerostin loop3 as potential anti-osteoporosis agents by structural based virtual screening and molecular design” (Eur J Med Chem, 2024)
